Measurements: patent publication US10155948B2, “Pharmaceutical composition for preventing or treating diabetic complications and screening method for preventive or therapeutic agent for diabetic complications” (KANGWON NATIONAL UNIVERSITY UNIVERSITY-INDUSTRY COOPERATION …, priority 2016, dated 2018)

Tests used:
TGase2 [1] = target: T1, TGase2 (Homo sapiens, UniProt P21980); test: In-situ TGase activity by confocal microscopy in VEGF-treated HRECs; assay type: cell-based; parameters: endogenous in cells; host or cells: human retinal endothelial cells (HRECs); conditions: 10 ng/ml VEGF 2 hrs, 50 μM cystamine, 20 μM MDC, 5 μM BAPTA-AM, 1 mM NAC, 0.5 μM Trolox, p<0.001
T1 sequence (P21980 1-687): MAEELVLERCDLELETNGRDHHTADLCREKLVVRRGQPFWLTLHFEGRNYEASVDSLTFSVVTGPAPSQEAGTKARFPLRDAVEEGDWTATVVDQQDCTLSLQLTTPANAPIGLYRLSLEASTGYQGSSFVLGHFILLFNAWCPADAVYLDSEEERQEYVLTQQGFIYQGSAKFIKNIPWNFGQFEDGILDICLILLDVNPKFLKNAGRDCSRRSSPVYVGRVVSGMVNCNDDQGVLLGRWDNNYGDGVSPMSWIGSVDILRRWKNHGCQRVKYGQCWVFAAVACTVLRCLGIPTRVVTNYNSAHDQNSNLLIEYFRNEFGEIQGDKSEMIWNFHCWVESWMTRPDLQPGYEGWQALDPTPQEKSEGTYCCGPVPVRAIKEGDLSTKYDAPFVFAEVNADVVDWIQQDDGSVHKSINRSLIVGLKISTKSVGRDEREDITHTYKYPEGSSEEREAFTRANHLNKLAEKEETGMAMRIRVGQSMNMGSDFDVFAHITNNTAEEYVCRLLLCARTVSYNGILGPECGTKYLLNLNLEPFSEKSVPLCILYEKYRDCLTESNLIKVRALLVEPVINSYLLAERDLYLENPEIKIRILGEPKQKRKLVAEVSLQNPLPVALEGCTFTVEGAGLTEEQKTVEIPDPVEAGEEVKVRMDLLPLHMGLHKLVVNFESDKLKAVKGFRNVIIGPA
Procedure: HUVEC isolation was done by our own supply and Human retinal endothelial cells (HRECs) were purchased from the Applied Cell Biology Research Institute (Cell Systems, Kirkland, Wash.). Both respectively were grown on 2% gelatin-coated plates in a M199 medium supplemented with 20% fetal bovine serum (FBS), 3 ng/ml basic fibroblastic growth factor, 5 units/ml heparin, 100 units/ml penicillin, and 100 μg/ml streptomycin. For experiments, cells were incubated for 6 hrs in a low-serum medium supplemented with 1% FBS and antibiotics.
In-situ Tgase transamidating activity was determined via confocal microscopic assay according to a previously known procedure. In brief, cells were incubated with 1 mM 5-(biotinamido)pentylamine (BAPA) for 1 hr at 37° C., fixed with 3.7% formaldehyde in PBS for 30 min, and permeabilized with 0.2% Triton X-100 in PBS for 30 min. After incubation with a blocking solution of 2% BSA in 20 mM Tris (pH 7.6), 138 mM NaCl, and 0.1% Tween 20 for 30 min, cells were treated with Cy3-conjugated streptavidin (1:200, v/v) in the blocking solution for 1 hr. Single-cell fluorescence intensities of stained cells were determined using confocal microscopy for 10 randomly selected cells per test. TGase activities were determined by comparing average fluorescence intensities of treated cells with those of control cells (expressed as multiples thereof).
HRECs were transfected with human TGase2-specific siRNA as described previously. In brief, cells were transfected with various concentrations of human TGase2-siRNA or 100 nM control siRNA (Dharmacon, Lafayette, Colo.) using siLentFect lipid reagent (Bio-Rad Laboratories, Hercules, Calif.) according to the manufacturer's instructions. Six hours after transfection with the indicated concentrations, the medium was replaced with a fresh culture medium and the transfected cells were further incubated for 24 hrs.
A detailed description of FIGS. 1A-1F are given below. […] (A, B) HRECs were incubated with 10 ng/ml VEGF for the indicated times (A) or for 2 hrs (B) in the presence of TGase inhibitors (50 μM cystamine and 20 μM MDC), 5 μM Ca^2+ chelator BAPTA-AM, or ROS scavengers (1 mM NAC or 0.5 μM Trolox). In-situ TGase activity was determined by confocal microscopy as described in Research Design and Methods (A: Time course changes in VEGF-induced transglutaminase activation; and B: Effects of various inhibitors on VEGF-induced transglutaminase activation). (C,D) HRECs were transfected with the indicated concentrations (C) or 100 nM (D) of human TGase2-specific siRNA (TGase2 siRNA) or 100 nM control (Ctrl) siRNA. Endothelial cells were treated with 10 ng/ml VEGF and subjected to confocal microscopic determination of in-situ TGase activity (C: Dose-dependent inhibition of TGase2 expression by TGase2 siRNA, TGase2 expression being analyzed by Western blot; and D: TGase2 siRNA prevention of VEGF-induced transglutaminase activation). FIGS. 1E and 1F show the effects of various inhibitors on the elevation of intracellular Ca^2+ (E) and ROS (F). Intracellular Ca^2+ and ROS levels were determined by confocal microscopy as described in Research Design and Methods. Results are expressed as mean±SD from three independent trials (***p<0.001).

HUVECs = test: VEGF-induced ROS generation in HUVECs; assay type: cell-based, human
Procedure: Intracellular ROS generation was determined using 2′,7′-dichlorodihydrofluorescein diacetate (H2DCFDA, Molecular Probes, Eugene, Oreg.) staining as previously described. Cells were pretreated with inhibitors for 30 min and co-incubated with 10 ng/ml of VEGF and 10 μM H2DCFDA in low-serum media (phenol red-free) for 10 min. Labeled cells were immediately analyzed using confocal microscopy (Fluoview-300, Olympus). Single-cell fluorescence intensities were determined for 10 randomly selected cells per test. Intracellular ROS levels were determined by comparing average fluorescence intensities of treated cells with those of control cells (expressed as multiples thereof).

TGase = target: T2, TGase (Homo sapiens, UniProt P21980); test: VEGF-induced TGase activation in HUVECs; assay type: cell-based
T2 construct: endogenous in cells; host or cells: HUVECs (isolated in house)
T2 sequence (P21980 1-687): T1 sequence (P21980 1-687)

TGase2 [2] = target: T1, TGase2; conditions: protein chip-based, dose-dependent

Structure (SMILES) | VEGF-induced TGase activation (in-situ TGase activity) (TGase2 [1]) | VEGF-enhanced ROS generation (HUVECs) | VEGF-enhanced TGase activation (TGase) | TGase2 activity (TGase2 [2])
CN(C)c1cccc2c(S(=O)(=O)NCCCCCN)cccc12 [MDC, monodansylcadaverine] | prevented | – | – | –
NCCSSCCN [cystamine] | prevented | – | – | –
NCCS [cysteamine] | – | inhibited | inhibited | inhibited
NCCc1ccc(O)c(O)c1 [dopamine] | – | inhibited | inhibited | inhibited
Cc1c(C)c2c(c(C)c1O)CCC(C)(C(=O)O)O2 (stereo not drawn) [Trolox] | inhibited | – | – | –
